Data on two compounds can be found in patent US20230265056A1, “CRYSTALLINE FORMS OF BENZAMIDE COMPOUND AND PROCESS FOR PREPARING THE SAME” (CRYSTAL PHARMATECH CO., LTD., priority 2020, published 2023).

Usually kinetic solubility stands for the concentration staying in solution when a stock, usually in DMSO, is diluted into the medium.

A short description of data set [1]: Kinetic solubility in SGF, FaSSIF, FeSSIF and pure water (HPLC). The note with it: for solubility kinetic at 1 h / solubility kinetic at 4 h / solubility kinetic at 24 h: thermodynamic from solid.
Procedure: Suspend Form J (from example 1), amorphous (from example 2) and Form A (from WO2020234779A1) in Simulated Gastric Fluid (SGF), Fasted-State Simulated Intestinal Fluid (FaSSIF), Fed-State Simulated Intestinal Fluid (FeSSIF) and pure water, respectively. After equilibrium for 1 hour, 8 hours and 24 hours, filter the solution for HPLC test.
A short description of data set [2]: Hygroscopicity by DVS test, with XRPD before and after. It is filed as physicochemical. The note with it: for Water uptake at 25° C., 80% / Water uptake at 25° C., 90%: DVS; for Water uptake at 25° C., 80%: 80% relative humidity; for Water uptake at 25° C., 90%: 90% relative humidity. On the procedure:
The dynamic vapor sorption diagrams of the present disclosure were collected on Intrinsic-type and Intrinsic Plus-type dynamic vapor sorption instruments of SMS company. The process parameters of the dynamic vapor sorption test of the present disclosure were as follows:
Protection gas and its flow rate: N2, 200 mL/minute
Minimum dm/dt equilibration time: 10 minutes
Maximum Equilibration Time: 180 minutes
Relative humidity range: 0% RH-95% RH-0% RH, 50% RH-95% RH-0% RH
Relative humidity gradient: 10% (0% RH-90% RH-0% RH), 5% (90% RH-95% RH and 95% RH-90% RH).
Weigh approximately 10 mg of a form of formula (I) (i.e., Form A from WO2020234779A1), 10 mg of Form J and 10 mg of amorphous for DVS test, and then collect the obtained solid for XRPD analysis. The DVS plots of Form A, Form J and amorphous were shown in FIGS. 6, 8 and 10, and the XRPD overlay were shown in
Following is Description and definition of hygroscopicity (see appendix XIX J, guidance for hygroscopicity evaluation of Pharmacopoeia of the People's Republic of China 2010): […]

A short description of data set [3]: Intrinsic dissolution of compressed thin tablet. Format: physicochemical. Conditions: pH 1.5 aqueous HCl solution. On the procedure:
Approximately 100 mg of each of Form J (from example 1) and Form A (from WO2020234779A1) were compressed by intrinsic dissolution mold under 10 kN pressure to obtain a thin tablet with surface area of 1.0 cm2, respectively. Dissolution experiment was performed on the tablets, and the corresponding result was summarized in Table 4, dissolution profile was shown in FIG. 16.

Molecules are shown by their SMILES. Converted amounts (≈) assume the structure as drawn.

For the compound `C=CC(=O)N(C)CCOc1c(N)ncnc1-c1cc(F)cc(NC(=O)c2ccc(C3CC3)cc2F)c1C` [Amorphous, N-(3-(6-amino-5-(2-(N-methylacrylamido)ethoxy)pyrimidin-4-yl)-5-fluoro-2-methylphenyl)-4-cyclopropyl-2-fluorobenzamide], the Kinetic solubility in data set [1] (FaSSIF, 24 hr) stood at 11 µg/mL; in data set [1] (SGF, 1 hr) it was 1400 µg/mL. Further, the kinetic solubility at 1 h in data set [1] (Fasted-State Simulated Intestinal Fluid (FaSSIF), fassif, 1 hr) was 10 µg/mL (≈ 19.7 µM); in data set [1] (Fed-State Simulated Intestinal Fluid (FeSSIF), fessif, 1 hr), 33 µg/mL (≈ 65 µM); in data set [1] (pure water, water, H2O, 1 hr), 4.6 µg/mL (≈ 9.06 µM). Further, the solubility (kinetic) at 4 h in data set [1] (Fasted-State Simulated Intestinal Fluid (FaSSIF), fassif, 4 hr) was 11 µg/mL (≈ 21.7 µM); in data set [1] (Fed-State Simulated Intestinal Fluid (FeSSIF), fessif, 4 hr), 34 µg/mL (≈ 67 µM); in data set [1] (Simulated Gastric Fluid (SGF), simulated gastric fluid, SGF, 4 hr), 1000 µg/mL (≈ 1970 µM); in data set [1] (pure water, water, H2O, 4 hr), 4.4 µg/mL (≈ 8.67 µM). For the same compound, the kinetic solubility at 24 h in data set [1] (Fed-State Simulated Intestinal Fluid (FeSSIF), fessif, 24 hr) was 33 µg/mL (≈ 65 µM); in data set [1] (Simulated Gastric Fluid (SGF), simulated gastric fluid, SGF, 24 hr), 950 µg/mL (≈ 1870 µM); in data set [1] (pure water, water, H2O, 24 hr), 4.3 µg/mL (≈ 8.47 µM). In data set [2], the “Water uptake at 25° C., 80%” value was 3.37%. Besides, the “Water uptake at 25° C., 90%” value in data set [2] is 4.14%. Moreover, the Hygroscopicity entry in data set [2] (class per Pharmacopoeia of the People's Republic of China 2010) was “Hygroscopic (increase in mass is less than 15 percent and equal to or greater than 2 percent)”.

Consider `C=CC(=O)N(C)CCOc1c(N)ncnc1-c1cc(F)cc(NC(=O)c2ccc(C3CC3)cc2F)c1C` [Form A, N-(3-(6-amino-5-(2-(N-methylacrylamido)ethoxy)pyrimidin-4-yl)-5-fluoro-2-methylphenyl)-4-cyclopropyl-2-fluorobenzamide, reference compound], for which the Kinetic solubility was determined as 6.1 µg/mL in data set [1] (FaSSIF, 1 hr); 6.5 µg/mL in data set [1] (FaSSIF, 4 hr); 5 µg/mL in data set [1] (FaSSIF, 24 hr); 20 µg/mL in data set [1] (FeSSIF, 1 hr); 22 µg/mL in data set [1] (FeSSIF, 4 hr); 22 µg/mL in data set [1] (FeSSIF, 24 hr). Moreover, the Kinetic solubility in data set [1] (H2O, 1 hr) is 3.7 µg/mL; in data set [1] (H2O, 4 hr), 3.9 µg/mL; in data set [1] (H2O, 24 hr) it was 2.9 µg/mL; in data set [1] (SGF, 1 hr), 690 µg/mL; in data set [1] (SGF, 4 hr), 710 µg/mL; in data set [1] (SGF, 24 hr), 700 µg/mL. Moreover, the Cumulative dissolution amount in data set [3] (5 mins) turned out to be 0.5 mg; in data set [3] (10 mins), 0.9 mg; in data set [3] (15 mins) it was 1.3 mg; in data set [3] (20 mins), 1.6 mg; in data set [3] (25 mins), 2.1 mg; in data set [3] (30 mins) it was 2.7 mg. Moreover, the Cumulative dissolution amount was found to be 3.2 mg in data set [3] (60 mins) and 4.3 mg in data set [3] (75 mins). For the same compound, the “Water uptake at 25° C., 80%” value in data set [2] was 0.54%. In addition, the “Water uptake at 25° C., 90%” value in data set [2] was 0.68%.
